# Experiments:
# platelets [1] = assay: Collagen-induced in vitro platelet aggregation (rabbit PRP, transmittance); type: cell-based; details: Oryctolagus cuniculus; collagen 0.2 μg/ml, rabbit platelet rich plasma; read-out: 50% Inhibition Point for Platelet Aggregation, IC50
# Protocol: Collagen-induced in vitro Platelet Aggregation
# It was studied whether the compounds of the present invention would inhibit platelet aggregation induced by collagen.
# These compounds were each diluted with physiological saline to end concentrations of 1×10^−7M, 3×10^−7M, 1×10^−6M, 3×10^−6M, 1×10^−5M, 3×10^−5M and 1×10^−4M.
# Indomethacin was used as a positive control. Indomethacin was dissolved in methanol, and then diluted with physiological saline to end concentrations of 1×10^−6M, 3×10^−6M and 1×10^−5M.
# Physiological saline was used as a negative control.
# The tube was centrifuged at 900 rpm for 10 minutes at room temperature to separate the supernatant (PRP, platelet rich plasma fraction). The residue was further centrifuged for 15 minutes at 2,500 rpm to obtain the supernatant (PPP, platelet poor plasma fraction).
# PPP (platelet poor plasma fraction) was placed in a cuvette, and the cuvette was mounted in a 37° C. incubator for PPP of an aggregometer (Hematracer 240 12ch, manufactured by MCM). Then, 200 μl of PRP (platelet rich plasma fraction) was added into a cuvette, and the cuvette was mounted in a reactor for PRP. With stirring by a magnetic stirrer, the transmittance of PPP was corrected to T650 nm=100%, and the transmittance of PRP was corrected to T650 nm=0%, by automatic adjustment for 30 seconds.
# The study substance (20 μl) at a predetermined concentration was added into the cuvette and, 30 seconds later, 20 μl (end concentration 0.2 μg/ml) of collagen (produced by MCM) was added. Subsequent changes in the transmittance were recorded for 5 minutes. When the platelets are aggregated, the transmittance increases. When aggregation peaked, the transmittance T at maximum aggregation was compared with the transmittance T0 of the negative control, and the aggregation inhibition rate was expressed as percentage using the following equation: Aggregation inhibition rate=(1−T/T0)×100
# From an aggregation inhibition curve obtained, a regression equation was derived by approximation of the linear type.
# platelets [2] = assay: Ex vivo platelet aggregation after intravenous administration; type: in vivo, rat; details: 0.1 mg/kg intravenous, blood 1 hour after administration, collagen 1 to 6 μg/ml
# Protocol: The blood was withdrawn at three points in time, 10 minutes, 30 minutes and 1 hour after administration. Platelets were prepared from the blood samples taken, and they were used to study the aggregation rates when platelet aggregation was induced by 0.3 to 6 μg/ml of collagen. In a control group, the aggregation rates after administration of a solvent (physiological saline) were measured.
# It was studied whether the compound of the present invention would suppress ex vivo platelet aggregation dose-dependently.
# The blood was withdrawn 60 minutes after administration, and platelets were prepared from the blood. Platelet aggregation was induced by 4 to 7 μg/ml of collagen using the platelets.
# The blood was withdrawn 1 hour after intravenous administration, and platelets were prepared from the blood. Platelet aggregation was induced by 1 to 6 μg/ml of collagen using the platelets.
# [3] = test system: neutrophils and vascular endothelial cells; assay: Pseudo-blood vessel in vitro inflammation model (TNFα, neutrophil migration through endothelial cell layer); type: cell-based, bovine; details: 30, 3 or 0.3 μM, TNFα 50 ng/ml
# Protocol: A layer of bovine endothelial cells was adhered to the bottom surface of the membrane, and cultured for 80 minutes at 37° C. in 5% CO2. Then, a suspension of fluorescence-labeled neutrophils was added to the upper chamber of the transwell. Simultaneously, TNFα was suspended in the cell suspension in the upper chamber to an end concentration of 50, 25 or 17 ng/ml.
# That is, in the above model, the phenomena that neutrophils pass from the upper chamber through the vascular endothelial cell layer into the lower chamber, and neutrophils adhere to the endothelial cell layer mimic a state where in response to TNFα within the blood vessel, neutrophils migrate from within the blood vessel to the site of inflammation.
# In the same manner as described above, the number of neutrophils passing from the upper chamber through the vascular endothelial cell layer into the lower chamber, and the number of neutrophils adhering to the endothelial cell layer were measured. Based on these numbers, the neutrophil migration rate (%) was calculated. The neutrophil migration rate was expressed as the relative value (%) of the number of the migrating neutrophils in the drug treatment group with respect to the number of the migrating neutrophils in the negative control group (physiological saline).
# platelets [4] = assay: In vitro platelet aggregation by various inducers, guinea pig platelets; type: cell-based; details: Cavia porcellus, inducer collagen (0.1 to 1 μg/ml), guinea pig platelets, read-out: 50% inhibition point, IC50, for in vitro platelet aggregation
# Text: (§1) Next, the suppression of platelet aggregation by the compounds of the present invention was studied in the same manner as described above with the use of not only collagen, but also arachidonic acid, ADP, thrombin, serotonin, epinephrine and U46619 (pseudo-thromboxane A2 substance) as inducers.
# (§2) As platelets, platelets prepared from rats and guinea pigs as well as rabbits were also used.
# (§3) Collagen and ADP were purchased from MCM, and used in accordance with the method of preparation described in the manuals attached to the purchased products. Serotonin, epinephrine and thrombin were purchased from Sigma, and used as solutions in physiological saline for injection (Otsuka Pharmaceutical Factory). Arachidonic acid was purchased from Cayman, and dispersed in physiological saline for injection (Otsuka Pharmaceutical Factory) with the use of an immersion type ultrasonic oscillator (US150, NIPPON SEIKI, tip end diameter ca. 3.5 mm). U46619 (pseudo-thromboxane substance) was purchased from FUNAKOSHI, and dissolved in physiological saline for injection (Otsuka Pharmaceutical Factory) when used.
# (§4) Collagen (0.1 to 1 μg/ml), arachidonic acid (1 mM), ADP (1 μM), thrombin (1 U/ml), serotonin (100 μM), epinephrine (100 to 200 μM), and U46619 (3 μM) were used.
# (§5) Indomethacin was used as a positive control for measuring the suppression of platelet aggregation induced by collagen.
# platelets [5] = assay: In vitro platelet aggregation by various inducers, rat platelets; type: cell-based; details: inducer collagen (0.1 to 1 μg/ml), rat platelets, read-out: 50% inhibition point, IC50, for in vitro platelet aggregation
# Text: as §1, §2, §3, §4, §5
# platelets [6] = assay: In vitro platelet aggregation by various inducers, rabbit platelets; type: cell-based; details: Oryctolagus cuniculus, Platelet; inducer collagen (0.1 to 1 μg/ml), rabbit platelets; read-out: 50% inhibition point, IC50, for in vitro platelet aggregation
# Text: as §1, §2, §3, §4, §5
SMILES,IC50 (platelets [1]) [µM],also measured
"CC/C=C\C/C=C\C/C=C\C/C=C\C/C=C\CCCC(=O)NCCC1CCCN1C (stereo not drawn) [Compound 8, (5Z,8Z,11Z,14Z,17Z)-N-[2-(1-methylpyrrolidin-2-yl)ethyl]eicosapentaenoamide]",3.7,–
"CC/C=C\C/C=C\C/C=C\C/C=C\C/C=C\C/C=C\CCC(=O)NCC1CCCN1C (stereo not drawn) [Compound 9, (4Z,7Z,10Z,13Z,16Z,19Z)-N-[(1-methylpyrrolidin-2-yl)methyl]docosahexaenoamide]",1.5,–
"CCCCCCCC/C=C\CCCCCCCC(=O)NCCC1CCCN1C (stereo not drawn) [Compound 5, 9Z-N-[2-(1-methylpyrrolidin-2-yl)ethyl]oleamide]",5.6,ex vivo platelet aggregation (in words) (platelets [2]): suppress platelet aggregation
"CC/C=C\C/C=C\C/C=C\C/C=C\C/C=C\C/C=C\CCC(=O)NN1CCN(C)CC1 [Compound 1, (4Z,7Z,10Z,13Z,16Z,19Z)-N-(4-methylpiperazin-1-yl)docosahexaenoamide]",7.9,neutrophil passage through vascular endothelial cell layer (in words) [3]: suppressed neutrophil passage dose-dependently
"CCCCC/C=C\C/C=C\CCCCCCCC(=O)NCCC1CCCN1C (stereo not drawn) [Compound 6, (9Z,12Z)-N-[2-(1-methylpyrrolidin-2-yl)ethyl]linoleamide]",2.1,–
"CC/C=C\C/C=C\C/C=C\C/C=C\C/C=C\C/C=C\CCC(=O)NCCCC1CCCN1C (stereo not drawn) [Compound 11, (4Z,7Z,10Z,13Z,16Z,19Z)-N-[3-(1-methylpyrrolidin-2-yl)propyl]docosahexaenoamide]",4.2,–
"CCCCCCCC(=O)NCCC1CCCN1C (stereo not drawn) [Compound 3, N-[2-(1-methylpyrrolidin-2-yl)ethyl]caprylamide]",8.1,–
"CCCCCCCCCCCCCC(=O)NCCC1CCCN1C (stereo not drawn) [Compound 4, N-[2-(1-methylpyrrolidin-2-yl)ethyl]myristamide]",42,–
"COc1ccc2c(c1)c(CC(=O)O)c(C)n2C(=O)c1ccc(Cl)cc1 [Indomethacin, reference compound]",5,IC50 (platelets [4]): 29 µM; IC50 (platelets [5]): 18 µM; IC50 (platelets [6]): 4 µM
"CC/C=C\C/C=C\C/C=C\CCCCCCCC(=O)NCCC1CCCN1C (stereo not drawn) [Compound 7, (9Z,12Z,15Z)-N-[2-(1-methylpyrrolidin-2-yl)ethyl]linolenamide]",3.7,–
